# What was measured:
# Assay type in all cases: biochemical
# Details in all cases: lyophilized nitrilase lysate added; OPA or NDA as fluorogenic reagent
# [1] = test system: nitrilase having SEQ ID NO: 190; test: OPA/NDA fluorescence assay of nitrile hydrolysis by lyophilized nitrilase lysate
# Description: FIG. 5A illustrates detection curves for assays of pivaldehyde aminonitrile (PAH), PAH combined with a lyophilized nitrilase lysate having a SEQ ID NO: 190 (“PAH+SEQ ID NO: 190”), acetophenone aminonitrile (APA), and APA combined with a lyophilized nitrilase lysate having a SEQ ID NO: 190 (“APA+SEQ ID NO: 190”), all using OPA as the fluorogenic reagent.
# FIG. 5B illustrates detection curves for PAH, PAH combined with a lyophilized nitrilase lysate having a SEQ ID NO: 190 (“PAH+SEQ ID NO: 190”), APA, and APA combined with a lyophilized nitrilase lysate having a SEQ ID NO: 190 (“APA+SEQ ID NO: 190”), all using naphthalene dicarboxyaldehyde (NDA) as the fluorogenic reagent.
# (§1) In assays using certain substrates, naphthalene dicarboxaldehyde (NDA) was substituted for OPA as the fluorescing agent. Calibration curves for APA, PAH, HPA and DMB, with either OPA or NDA were constructed (see FIGS. 5A, 5B, 5C and 5D). To determine sensitivity and background fluorescence, lyophilized nitrilase lysates with SEQ ID NOS: 190, 56, and 60 were added, respectively.
# [2] = test system: nitrilase of SEQ ID NO: 56; test: OPA/NDA fluorescence assay of nitrile hydrolysis by nitrilase
# Description: (§2) FIG. 5C illustrates detection curves for hydroxylpivaldehyde aminonitrile (HPA), HPA combined with a nitrilase of SEQ ID NO: 56(“HPA+SEQ ID NO: 56”), dimethylbutanal aminonitrile (DMB), and DMB combined with a nitrilase of SEQ ID NO: 60 (“DMB+SEQ ID NO: 60”), all using OPA as the fluorogenic reagent.
# (§3) FIG. 5D illustrates detection curves for HPA, HPA combined with a nitrilase of SEQ ID NO: 56 (“HPA+SEQ ID NO: 56”), DMB, and DMB combined with a nitrilase of SEQ ID NO: 60 (“DMB+SEQ ID NO: 60”), all using NDA as the fluorogenic reagent.
# as §1
# [3] = test system: nitrilase of SEQ ID NO: 60; test: as above
# Description: as §2, §3, §1
compound,measurement,setting,value
"CC(N)(C#N)c1ccccc1 (stereo not drawn) [APA, acetophenone aminonitrile]",hydrolysis of the enzyme substrate,[1],Hydrolysis was detected
"CC(C)(CO)C(N)C#N (stereo not drawn) [HPA, hydroxylpivaldehyde aminonitrile]",hydrolysis of the enzyme substrate,[2],Hydrolysis was detected
dimethylbutanal aminonitrile [DMB],hydrolysis of the enzyme substrate,[3],Hydrolysis was detected

# — patent publication US20040038419A1, “Assays and kits for detecting the presence of nitriles and/or cyanide” (priority 2002, published 2004)
